Where two headings read alike, the source gives them in different places. Starred links: 1 amine or outer side, 2 acyl side, 3 side chain; linkers in the order of their positions; H or OH if unused. Non-standard residues stand in square brackets, D forms with d. Groups on a side chain read outwards from the residue. *: point of attachment. C20 diacid = O=C(O)CCCCCCCCCCCCCCCCCCC(=O)*; γGlu = O=C(O)[C@H](CCC(=O)[*:2])N[*:1]; εLys = N[C@@H](CCCCN[*:1])C(=O)[*:2]; hArg = N=C(N)NCCCC[C@H](N)C(=O)O; β3hQ = NC(=O)CC[C@H](N)CC(=O)O; Tle = CC(C)(C)[C@H](N)C(=O)O; Aib = CC(C)(N)C(=O)O
Key:
Format in all cases: cell-based
Conditions in all cases: CreLuc reporter gene assay
hGLP1R = molecular target: T1, hGLP1R (Homo sapiens, UniProt P43220); assay: hGLP1R CreLuc reporter gene assay in 0.5% and 100% plasma
T1 construct: expressed in transfected cells; host or cells: HEK-293 cells carrying a CRE-luciferase reporter gene
Outline: (§1)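 Agonist EC50s came from 8-concentration curves over four decades, fitted by non-linear variable-slope regression of CRE-driven luciferase luminescence. Cells were exposed 4 h at 37 °C, in buffer with 0.5% human plasma or in 100% plasma; GIPR was expressed in CHO cells, GLP-1R and NPY2R in HEK cells.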

hGIPR = molecular target: T2, hGIPR (Homo sapiens, UniProt P48546); assay: hGIPR CreLuc reporter gene assay in 0.5% and 100% plasma
T2 construct: expressed in transfected cells; host or cells: CHO cells carrying a CRE-luciferase reporter gene
T2 sequence (P48546 22-466): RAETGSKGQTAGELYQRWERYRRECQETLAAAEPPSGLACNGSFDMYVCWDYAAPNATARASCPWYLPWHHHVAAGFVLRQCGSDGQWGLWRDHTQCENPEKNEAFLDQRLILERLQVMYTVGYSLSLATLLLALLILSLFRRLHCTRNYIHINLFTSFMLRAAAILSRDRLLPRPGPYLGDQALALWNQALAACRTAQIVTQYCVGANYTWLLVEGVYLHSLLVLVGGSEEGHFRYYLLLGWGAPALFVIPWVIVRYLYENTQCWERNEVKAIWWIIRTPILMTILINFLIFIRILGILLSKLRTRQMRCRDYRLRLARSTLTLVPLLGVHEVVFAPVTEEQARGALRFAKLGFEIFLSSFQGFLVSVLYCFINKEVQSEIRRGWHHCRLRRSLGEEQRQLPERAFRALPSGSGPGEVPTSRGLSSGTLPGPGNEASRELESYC
Outline: as §1

hNPY2R = molecular target: T3, hNPY2R (Homo sapiens, UniProt P49146); assay: hNPY2R CreLuc reporter gene assay in 0.5% and 100% plasma
T3 construct: expressed in transfected cells; host or cells: HEK-293 cells carrying a CRE-luciferase reporter gene
T3 sequence (P49146 1-381): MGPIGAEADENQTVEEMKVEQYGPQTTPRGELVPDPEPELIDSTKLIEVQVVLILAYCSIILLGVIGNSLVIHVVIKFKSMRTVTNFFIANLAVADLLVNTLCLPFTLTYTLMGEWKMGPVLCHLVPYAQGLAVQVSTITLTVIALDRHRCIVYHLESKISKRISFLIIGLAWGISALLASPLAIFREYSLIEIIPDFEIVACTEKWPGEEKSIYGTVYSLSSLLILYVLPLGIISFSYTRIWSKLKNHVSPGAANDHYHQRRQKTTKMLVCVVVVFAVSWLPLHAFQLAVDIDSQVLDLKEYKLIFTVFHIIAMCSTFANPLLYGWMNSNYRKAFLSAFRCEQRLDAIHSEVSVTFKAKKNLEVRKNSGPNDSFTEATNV
Outline: as §1

[1] = 0.5% human plasma, read-out: hGLP1R 0.5% hP
[2] = 0.5% human plasma, read-out: hGIPR 0.5% hP
[3] = 0.5% human plasma, read-out: hNPY2R 0.5% hP
[4] = 100% human plasma, read-out: hGIPR 100% hP
[5] = 100% human plasma, read-out: hNPY2R 100% hP

T1 sequence (P43220 24-463): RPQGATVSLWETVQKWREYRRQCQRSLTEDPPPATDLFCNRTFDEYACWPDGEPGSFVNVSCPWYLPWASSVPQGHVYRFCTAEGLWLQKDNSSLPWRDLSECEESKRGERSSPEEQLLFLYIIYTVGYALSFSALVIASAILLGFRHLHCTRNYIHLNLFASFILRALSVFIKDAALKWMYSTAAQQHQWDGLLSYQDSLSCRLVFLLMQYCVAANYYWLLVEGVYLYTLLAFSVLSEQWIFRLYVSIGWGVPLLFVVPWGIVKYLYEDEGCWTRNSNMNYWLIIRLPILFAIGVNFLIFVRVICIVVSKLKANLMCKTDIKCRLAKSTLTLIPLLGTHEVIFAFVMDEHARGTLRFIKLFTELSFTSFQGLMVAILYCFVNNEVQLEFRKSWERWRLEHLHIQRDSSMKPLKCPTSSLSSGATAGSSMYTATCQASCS

EC50 (hGLP1R; [1]) [nM] | EC50 (hGIPR; [2]) [nM] | EC50 (hNPY2R; [3]) [nM] | EC50 (hGIPR; [4]) [nM] | EC50 (hNPY2R; [5]) [nM] | EC50 (hGLP1R; 100% human plasma, read-out: hGLP1R 100% hP) [nM] | Substance
0.18 | 0.28 | 46 | 1.37 | – | – | H-Y[Aib]EGTFTSDYSI[Aib]LEKQAQ[Aib]AFVEWLIK([εLys-γGlu-γGlu-γGlu-γGlu-γGlu-γGlu-C20 diacid])GGPSSGASLRHY[Aib]NWLTRQRY-NH2 [Compound 184, Y-Aib-E-G-T-F-T-S-D-Y-S-I-Aib-L-E-K-Q-A-Q-Aib-A-F-V-E-W-L-I-K(1,3)-G-G-P-S-S-G-A-S-L-R-H-Y-Aib-N-W-L-T-R-Q-R-Y-NH2.C20DA-gGlu-gGlu-gGlu-gGlu-gGlu-gGlu-eLys(1,2)]
0.16 | 0.48 | 14.1 | – | – | – | H-Y[Aib]EGTFTSDYSI[Aib]LEKQAQ[Aib]AFVEWLIK([εLys-γGlu-γGlu-γGlu-γGlu-γGlu-γGlu-C20 diacid])GGPSSGASLRHY[Tle]NWLTRQRY-NH2 [Compound 133, Y-Aib-E-G-T-F-T-S-D-Y-S-I-Aib-L-E-K-Q-A-Q-Aib-A-F-V-E-W-L-I-K(1,3)-G-G-P-S-S-G-A-S-L-R-H-Y-Tle-N-W-L-T-R-Q-R-Y-NH2.C20DA-gGlu-gGlu-gGlu-gGlu-gGlu-gGlu-eLys(1,2)]
0.13 | 0.21 | 70.4 | 1.39 | – | – | H-Y[Aib]EGTFTSDYSI[Aib]LEKQAQ[Aib]AFVEWLIK([εLys-γGlu-γGlu-γGlu-γGlu-γGlu-γGlu-C20 diacid])GGPSSGASLR[Aib]YYNWLTRQRY-NH2 [Compound 182, Y-Aib-E-G-T-F-T-S-D-Y-S-I-Aib-L-E-K-Q-A-Q-Aib-A-F-V-E-W-L-I-K(1,3)-G-G-P-S-S-G-A-S-L-R-Aib-Y-Y-N-W-L-T-R-Q-R-Y-NH2.C20DA-gGlu-gGlu-gGlu-gGlu-gGlu-gGlu-eLys(1,2)]
0.26 | 0.63 | 23.1 | – | – | – | H-Y[Aib]EGTFTSDYSI[Aib]LEKQAQ[Aib]AFVEWLIK([εLys-γGlu-γGlu-γGlu-γGlu-γGlu-γGlu-C20 diacid])GGPSSGASLR[Tle]YYNWLTRQRY-NH2 [Compound 119, Y-Aib-E-G-T-F-T-S-D-Y-S-I-Aib-L-E-K-Q-A-Q-Aib-A-F-V-E-W-L-I-K(1,3)-G-G-P-S-S-G-A-S-L-R-Tle-Y-Y-N-W-L-T-R-Q-R-Y-NH2.C20DA-gGlu-gGlu-gGlu-gGlu-gGlu-gGlu-eLys(1,2)]

The remaining lines, values behind:

Substance | EC50 (hGLP1R; [1]) [nM] | EC50 (hGIPR; [2]) [nM] | EC50 (hNPY2R; [3]) [nM] | EC50 (hGIPR; [4]) [nM] | EC50 (hNPY2R; [5]) [nM] | EC50 (hGLP1R; 100% human plasma, read-out: hGLP1R 100% hP) [nM]
H-Y[Aib]EGTFTSDYSI[Aib]LEKQAQ[Aib]AFVEWLIK([εLys-γGlu-γGlu-γGlu-γGlu-γGlu-γGlu-C20 diacid])GGPSSGASLLHYYNWLTRQRY-NH2 [Compound 210, Y-Aib-E-G-T-F-T-S-D-Y-S-I-Aib-L-E-K-Q-A-Q-Aib-A-F-V-E-W-L-I-K(1,3)-GGPSSGASLLHYYNWLTRQRY-NH2.C20DA-gGlu-gGlu-gGlu-gGlu-gGlu-gGlu-eLys(1,2)] | 0.19 | 0.28 | 54.1 | – | – | –
H-Y[Aib]EGTFTSDYSI[Aib]LEKQAQ[Aib]AFVEWLIK([εLys-γGlu-γGlu-γGlu-γGlu-γGlu-γGlu-C20 diacid])GGPSSGASLRHYINWLTRQRY-NH2 [Compound 106, Y-Aib-E-G-T-F-T-S-D-Y-S-I-Aib-L-E-K-Q-A-Q-Aib-A-F-V-E-W-L-I-K(1,3)-GGPSSGASLRHYINWLTRQRY-NH2.C20DA-gGlu-gGlu-gGlu-gGlu-gGlu-gGlu-eLys(1,2)] | 0.14 | 0.26 | 20.5 | – | – | –
H-Y[Aib]EGTFTSDYSI[Aib]LEKQAQ[Aib]AFVEWLIK([εLys-γGlu-γGlu-γGlu-γGlu-γGlu-γGlu-C20 diacid])GGPSSGASLRHYLNL[Aib]TRQRY-NH2 [Compound 17, Y-Aib-E-G-T-F-T-S-D-Y-S-I-Aib-L-E-K-Q-A-Q-Aib-A-F-V-E-W-L-I-K(1,3)-G-G-P-S-S-G-A-S-L-R-H-Y-L-N-L-Aib-T-R-Q-R-Y-NH2.C20DA-gGlu-gGlu-gGlu-gGlu-gGlu-gGlu-eLys(1,2)] | 0.14 | 0.43 | > 100 | – | – | –
H-Y[Aib]EGTFTSDYSI[Aib]LEKQAQ[Aib]AFVEWLIK([εLys-γGlu-γGlu-γGlu-γGlu-γGlu-γGlu-C20 diacid])GGPSSGASLRHYYNL[Aib]TRQRY-NH2 [Compound 79, Y-Aib-E-G-T-F-T-S-D-Y-S-I-Aib-L-E-K-Q-A-Q-Aib-A-F-V-E-W-L-I-K(1,3)-G-G-P-S-S-G-A-S-L-R-H-Y-Y-N-L-Aib-T-R-Q-R-Y-NH2.C20DA-gGlu-gGlu-gGlu-gGlu-gGlu-gGlu-eLys(1,2)] | 0.11 | 0.29 | 87.6 | 1.86 | – | –
H-Y[Aib]EGTFTSDYSI[Aib]LEKQAQ[Aib]AFVEWLIK([εLys-γGlu-γGlu-γGlu-γGlu-γGlu-γGlu-C20 diacid])GGPSSGASLRHYYNWLTRQR[Tle]-NH2 [Compound 191, Y-Aib-E-G-T-F-T-S-D-Y-S-I-Aib-L-E-K-Q-A-Q-Aib-A-F-V-E-W-L-I-K(1,3)-GGPSSGASLRHYYNWLTRQR-Tle-NH2.C20DA-gGlu-gGlu-gGlu-gGlu-gGlu-gGlu-eLys(1,2)] | 0.17 | 0.23 | > 99.9 | 2 | > 999 | –
H-Y[Aib]EGTFTSDYSI[Aib]LEKQAQ[Aib]AFVEWLIK([εLys-γGlu-γGlu-γGlu-γGlu-γGlu-γGlu-C20 diacid])GGPSSGASLRHYYNWLTR[β3hQ]RY-NH2 [Compound 208, Y-Aib-E-G-T-F-T-S-D-Y-S-I-Aib-L-E-K-Q-A-Q-Aib-A-F-V-E-W-L-I-K(1,3)-G-G-P-S-S-G-A-S-L-R-H-Y-Y-N-W-L-T-R-bHGln-R-Y-NH2.C20DA-gGlu-gGlu-gGlu-gGlu-gGlu-gGlu-eLys(1,2)] | 0.11 | 0.07 | > 100 | 0.81 | > 1000 | –
H-Y[Aib]EGTFTSDYSI[Aib]LEKQAQ[Aib]AFVEWLIK([εLys-γGlu-γGlu-γGlu-γGlu-γGlu-γGlu-C20 diacid])GGPSSGASLRHYYNWLT[hArg]QR[dY]-NH2 [Compound 71, Y-Aib-E-G-T-F-T-S-D-Y-S-I-Aib-L-E-K-Q-A-Q-Aib-A-F-V-E-W-L-I-K(1,3)-G-G-P-S-S-G-A-S-L-R-H-Y-Y-N-W-L-T-hArg-Q-R-DTyr-NH2.C20DA-gGlu-gGlu-gGlu-gGlu-gGlu-gGlu-eLys(1,2)] | 0.14 | 0.13 | > 100 | 0.64 | > 1000 | 1.13
H-Y[Aib]EGTFTSDYSI[Aib]LEKQAQ[Aib]AFVEWLIK([εLys-γGlu-γGlu-γGlu-γGlu-γGlu-γGlu-C20 diacid])GGPSSGASLRHYY[Aib]WLTRQRY-NH2 [Compound 213, Y-Aib-E-G-T-F-T-S-D-Y-S-I-Aib-L-E-K-Q-A-Q-Aib-A-F-V-E-W-L-I-K(1,3)-G-G-P-S-S-G-A-S-L-R-H-Y-Y-Aib-W-L-T-R-Q-R-Y-NH2.C20DA-gGlu-gGlu-gGlu-gGlu-gGlu-gGlu-eLys(1,2)] | 0.16 | 0.34 | > 100 | 1.53 | > 1000 | –
H-Y[Aib]EGTFTSDYSI[Aib]LEKQAQ[Aib]AFVEWLIK([εLys-γGlu-γGlu-γGlu-γGlu-γGlu-γGlu-C20 diacid])GGPSSGASLRHY[Aib]NR[Aib]TRQRY-NH2 [Compound 18, Y-Aib-E-G-T-F-T-S-D-Y-S-I-Aib-L-E-K-Q-A-Q-Aib-A-F-V-E-W-L-I-K(1,3)-G-G-P-S-S-G-A-S-L-R-H-Y-Aib-N-R-Aib-T-R-Q-R-Y-NH2.C20DA-gGlu-gGlu-gGlu-gGlu-gGlu-gGlu-eLys(1,2)] | 0.12 | 0.36 | 85.7 | – | – | –

From US20240247080A1, “GLP1/GIP/NPY2 RECEPTOR TRIPLE AGONISTS” (Boehringer Ingelheim International GmbH, priority 2022, published 2024)
